Test results reported in PubChem BioAssay (NCI).
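In this assay, cells in 96-well plates receive the compound at five concentrations for 48 hours. Endpoints are linearly interpolated between the surrounding concentrations. The concentration for 50% growth inhibition is given as GI50. At the TGI there is no net growth.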

Assays:
Test in all cases: growth of human tumour cells (NCI), 48 h
[1] = system: HS 578T breast
[2] = system: K-562 leukemia
[3] = system: CCRF-CEM leukemia
[4] = system: TK-10 renal
[5] = system: OVCAR-8 ovarian
[6] = system: OVCAR-4 ovarian
[7] = system: NCI-H23 lung
[8] = system: NCI-H460 lung
[9] = system: SK-MEL-2 melanoma
[10] = system: NCI/ADR-RES ovarian

Structure (SMILES) | TGI [1] [µM] | TGI [2] [µM] | TGI [3] [µM] | TGI [4] [µM] | TGI [5] [µM] | TGI [6] [µM] | TGI [7] [µM] | TGI [8] [µM] | TGI [9] [µM] | TGI [10] [µM] | GI50 [4] [µM] | GI50 [5] [µM] | GI50 [6] [µM] | GI50 [7] [µM] | GI50 [8] [µM] | GI50 [9] [µM] | GI50 [10] [µM]
c1coc(-c2nccc3c2[nH]c2ccccc23)c1 | > 100 | > 100 | > 100 | > 100 | > 100 | > 100 | > 100 | > 100 | > 100 | > 100 | – | – | – | – | – | – | –
O=C(c1ccccc1)N1CCN(C(=S)NC2CCCCC2)C1=S | 50.3 | 96.8 | 45.1 | 62 | 32.9 | 40.8 | 36.1 | 49.5 | 14.9 | 43.6 | – | – | – | – | – | – | –
O=c1ccc2ccc(CBr)cc2o1 | 28.9 | 5.2 | – | 3.37 | 4.06 | – | 8.91 | 25.3 | 26.6 | 3.73 | – | – | – | – | – | – | –
CCn1c2nc(=O)n(CCCCCCCCSC(c3ccccc3)(c3ccccc3)c3ccccc3)c(=O)c-2nc2ccccc21 | > 100 | > 100 | > 100 | > 100 | > 100 | > 100 | > 100 | > 100 | > 100 | > 100 | – | – | – | – | – | – | –
Cn1cnc(N2CCCC2)c(C#N)c1=S | > 100 | > 100 | > 100 | > 100 | > 100 | > 100 | > 100 | > 100 | > 100 | > 100 | – | – | – | – | – | – | –
COc1cccc2c1C(=O)c1c(O)c3c(c(O)c1C2=O)C[C@@](O)(C(C)=O)CC3S(=O)(=O)O (stereo not given in full) | – | > 100 | > 100 | > 100 | > 100 | > 100 | > 100 | > 100 | > 100 | – | – | – | – | – | – | – | –
CN(C)Cc1c(O)ccc2c1c1c(n2C)C(=O)c2ccccc2C1=O | > 100 | > 100 | > 100 | 50.7 | > 100 | 32.3 | 27.4 | > 100 | 24.8 | 18.3 | – | – | – | – | – | – | –
Cc1c(C(=O)O)n2c(=S)[nH]nc2c2ccccc12 | > 100 | > 100 | > 100 | > 100 | > 100 | > 100 | > 100 | > 100 | > 100 | > 100 | – | – | – | – | – | – | –
CCOC(=O)/C=C/C(=O)O/C=C/[N+](=O)[O-] | > 100 | – | > 100 | > 100 | > 100 | – | > 100 | > 100 | – | > 100 | – | – | – | – | – | – | –
Cn1c(-c2ccc[se]2)ccc1-c1ccc(C=O)[se]1 | > 89.9 | > 100 | 14.1 | 0.439 | 42.2 | > 61.1 | 48.9 | 24.2 | > 100 | 9.13 | – | – | – | – | – | – | –
CCOP(=O)(CCCC(O)CNc1nc(N)nc(Cl)c1N=Nc1ccc(Cl)cc1)OCC (stereo not given) | 30.3 | 16 | 9.92 | 13.6 | 22.9 | 17.6 | 28 | 37 | 27.3 | 31 | – | – | – | – | – | – | –
Cc1ccc(Cc2cc(N3CCN(c4cccc(Cl)c4)CC3)nnc2C)cc1 | > 100 | – | – | > 100 | > 100 | > 100 | > 100 | > 100 | > 100 | > 100 | – | – | – | – | – | – | –
CC(C)C(Nc1ncnc2nc[nH]c12)C(=O)O (stereo not given) | > 100 | > 100 | > 100 | > 100 | > 100 | > 100 | > 100 | > 100 | > 100 | > 100 | – | – | – | – | – | – | –
C/C=C1/CN2CCC34c5ccccc5N(C)C23C2CC1C4(C(=O)OC)C(OC(C)=O)O2 (stereo not given) | > 100 | > 100 | > 100 | > 100 | > 100 | > 100 | > 100 | > 100 | > 100 | > 100 | – | – | – | – | – | – | –
CCOC(=O)c1c(NS(=O)(=O)c2ccc(C)cc2)sc2c1CCCC2 | > 100 | > 100 | > 100 | > 100 | > 100 | – | 54 | 78.8 | 54.8 | > 100 | – | – | – | – | – | – | –
COC1=C[C@]2(CCC(=O)O2)[C@@H]2Cc3ccccc3[C@H](O)[C@@H]2C1=O | > 100 | > 100 | 35.8 | > 100 | > 100 | > 100 | > 100 | > 100 | 96.2 | > 100 | – | – | – | – | – | – | –
CC1(C)OC[C@H](C(=N)OCc2ccccc2)O1 | – | > 100 | > 100 | > 100 | > 100 | > 100 | > 100 | > 100 | > 100 | – | – | – | – | – | – | – | –
CC(=O)OCC1OC(N2C(=O)NC(=O)C3C=C4CCCCC4=CC32)CC1OC(C)=O (stereo not given) | > 100 | > 100 | – | > 100 | > 100 | > 100 | – | > 100 | > 100 | > 100 | – | – | – | – | – | – | –
CN(C)C(=O)Oc1c(Br)cc(Br)cc1C(=O)OCc1ccccc1 | – | > 90.2 | 68.3 | – | > 100 | > 100 | > 72.9 | 56.5 | > 71.2 | 51.8 | – | – | – | – | – | – | –
CCc1cc(C)cc2[n+]1CC=C2 | – | – | – | > 100 | > 100 | > 100 | 53.8 | 93.9 | 40.2 | – | – | – | – | – | – | – | –
CCC(C)(C)c1cc(O)c(C(C)(C)CC)cc1O | – | – | – | 8.19 | 23.5 | 14.1 | 12.4 | 6.53 | 4.33 | 11.3 | 2.46 | 4.48 | 3.26 | 3.18 | 2.25 | 1.85 | 2.96
Fc1ccc(-c2sc(-c3ccsc3)cc2Cc2ccsc2)cc1 | – | > 10 | > 10 | > 10 | > 10 | > 10 | > 10 | – | – | – | – | – | – | – | – | – | –
